One series concerns the target T1, alpha-A crystalline (Homo sapiens, UniProt P02489).
T1 sequence (P02489 1-173): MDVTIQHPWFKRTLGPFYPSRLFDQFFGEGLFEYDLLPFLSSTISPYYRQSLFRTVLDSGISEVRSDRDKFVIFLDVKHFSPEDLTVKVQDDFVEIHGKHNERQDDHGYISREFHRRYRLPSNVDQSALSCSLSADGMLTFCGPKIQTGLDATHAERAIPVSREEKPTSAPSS
Briefly: Ca+2 and UVC induced aggregation of alpha-A crystalline (absorbance screen).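 For all read-outs here: recombinant human alpha-A crystallin (500 µg/ml) preincubated 30 min with compound, then UV-induced aggregation tracked by absorbance at time points from 0 to 120 min.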 The format is biochemical. As to conditions: for inhibition at 200 µM: Ca+2 and UVC induced aggregation of alpha-A crystalline, read-out: Percent protection (at 200 μM); for EC50: preventing Ca+2 and UVC induced aggregation of alpha-A crystalline.

Another series deals with SRA 01/04 HLE cells. Briefly: Cell-based UV protection, viability by Alamar blue.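 Note: cells pretreated with compound at a range of concentrations before UV irradiation, viability read 24 h after exposure.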 On the set-up: species or system human. As to conditions: Table 5.
Series [1] deals with human lens epithelial (HLE) cells. Briefly: Cell-based heat protection, viability by Alamar blue. Also on record: Cell Heat % protection: concentration or dose not given beside the values. Particulars: for Cell-based [Heat] (max % net protection): Table 5. The protocol:
Alamar blue was used for assessing viability. Mean±SEM of the measurements are shown.
Cell-based using assays using human lens epithelial cell lines SRA 01/04 and B3 were also performed. The cells were exposed to UV or heat and cell viability assessed 24 hours post-exposure by Alamar blue staining. In another experiment, SRA 01/04 cells were pre-incubated with varying concentrations of compounds two hours prior to UV exposure. Relative protection was measured as percent viability compared to vehicle control 24 hours following UV exposure. Mean±SEM of the measurements are shown.

Series [2] can be described thus: Solubility with FDA approved excipients. In kind it is physicochemical. The protocol:
Solubility: The solubility of CAP1160 and CAP4196 was tested with different FDA approved excipients such as cyclodextrin, PEG-b-PCL, Kolliphor-EL, Kolliphor-40, sorbitol, propelyne gycol, sodium phosphate, etc. […] This makes the formulation safe for topical use (see Table 6).

Another series deals with TTR (Homo sapiens, UniProt P02766). As to conditions: Sant'Anna, R. et al. (2016); cited from earlier work.
Series [3] deals with New Zealand white rabbits. Nature of the series: Ocular safety / MTD, repeated dose for 7 days. As to conditions: for Mortality and Morbidity: 50 μL × 4 times a day in each eye, male. In kind it is in vivo. The procedure:
Prodrug CAP4196 is well-tolerated up to 10% concentration in New Zealand white rabbits. Initial maximum tolerated dose studies (MTD) help identify observable signs of toxicity and provide a rationale for setting dose levels in later definitive studies. Therefore, the MTD of CAP4196 was evaluated in New Zealand white rabbits. Four animals per group were dosed with increasing concentrations (0.25, 2.5, 8 and 10%) of CAP4196 at 50 μl volume q.i.d. dosing at 2 hrs interval. Following the dosing, the animals were evaluated for mortality and morbidity, ophthalmological examination, body weight, and clinical pathology before start of dosing then on dosing days 2, 4, and 6 prior to first dose instillation and on day 7, one hour after last dose instillation.

Another series has as its system porcine eye lens. Nature of the series: Ex vivo eye lens exposed to UVC radiation, cataract scoring. As to conditions: Table 8; printed as a percentage. The protocol:
The top row of the figure corresponds to lenses that were not exposed to UVC but contained same percent of DMSO as those that were exposed to UVC. The lenses were monitored and imaged for three days following the exposure to UVC. No drug was added to the lenses post UVC exposure.

≈ marks a conversion by molar mass, not a printed value. Like-named read-outs stand apart in the source and are kept apart here.

Turning to `Cc1ccc(C(=O)c2cc(O)c(O)c([N+](=O)[O-])c2)cc1` [CAP1160, Tolcapone], on alpha-A crystalline, the inhibition at 200 µM turned out to be 65% and the concentration for a half-maximal effect (EC50) was 63.5 µM. The “Cell-based [UV] (max % net protection)” value in the series with SRA 01/04 HLE cells is listed as 68%. Further, in series [1], the “Cell-based [Heat] (max % net protection)” value is on record as 23%. In series [2], the “With Kolliphor 40 (1:1) In water” value was determined as 1, the “With PEG-b-PCL (1:1) mg/ml in water” value was 1 mg/mL and the improvement in solubility was 10 fold. For the same molecule, in series [2] (aqueous with cosolvent or surfactant or cyclodextrin, Solubility in water with (2-hydroxypropyl)-beta cyclodextrin mg/ml (1:1)), the solubility is 2 mg/mL (≈ 7.32 mM). The same molecule registered a solubility in series [2] (aqueous with cosolvent or surfactant or cyclodextrin, solubility) of 1.5 mg/mL (≈ 5.49 mM). In series [2] (water, Solubility in water mg/ml), this molecule gave a solubility of 0.1 mg/mL (≈ 0.366 mM). For the same molecule, the TTR aggregation inhibition entry on TTR is given as “potent TTR aggregation inhibitor”.
As for `Cc1ccc(C(=O)c2cc(OP(=O)([O-])[O-])c(O)c([N+](=O)[O-])c2)cc1.[Na+].[Na+]` [CAP4196, Sodium 2-hydroxy-5-(4-methylbenzoyl)-3-nitrophenyl phosphate], in the series on SRA 01/04 HLE cells, the “Cell-based [UV] (max % net protection)” value turned out to be 63%. In series [1], the “Cell-based [Heat] (max % net protection)” value amounted to 38%. Also, the “pH of the formulation” value in series [2] (100 mg/ml, only water as solvent) is on record as 6.65. The solubility in series [2] (aqueous with cosolvent or surfactant or cyclodextrin, water with (2-hydroxypropyl)-beta cyclodextrin (1:1), read-out: Solubility in water with (2-hydroxypropyl)-beta cyclodextrin mg/ml (1:1)) was 100 mg/mL; in series [2] (pH 6.65, only water as solvent, read-out: solubility), 100 mg/mL; in series [2] (water, read-out: Solubility in water) it was 100 mg/mL. Also, the improvement in solubility result in series [2] (phosphate prodrug, only water as solvent) is “greater than 660 fold”. Moreover, the local reactions result in series [3] (10% w/v, 50 μL, 4 times a day) is “only few temporary local reactions like excessive rubbing of eyes and redness”. Besides, the systemic toxicity result in series [3] (10% w/v, 50 μL, 4 times a day) is reported as “did not produced any systemic toxicity”. In series [3] (50 μL, 4 times a day, 2 hours interval, 7 days), the “MTD (highest dose concentration)” value amounted to 10%. The “Mortality and Morbidity” value in series [3] (ophthalmic formulation 0.25% w/v), in series [3] (ophthalmic formulation 4% w/v), in series [3] (ophthalmic formulation 8% w/v) and in series [3] (ophthalmic formulation 10% w/v) was 0 each time. Besides, the well-tolerated concentration entry in series [3] (topical ocular, repeated dose 7 days) was “up to 10%”.
Consider `CNc1ccc2c(O)cc(S(=O)(=O)O)cc2c1` [CAP4184], for which the Ex-vivo in the series on porcine eye lens amounted to 15%. Also, the “Cell Heat % protection” value in series [1] (Table 8) turned out to be 4%.
For `O=C(c1cc(O)c(O)c([N+](=O)[O-])c1)c1ccccc1F` [CAP3089], at alpha-A crystalline, the inhibition at 200 µM came out at 56% and a half-maximal effect (EC50) was put at 362 µM. Moreover, the “Cell-based [UV] (max % net protection)” value with SRA 01/04 HLE cells is on record as 31%. Moreover, the “Cell-based [Heat] (max % net protection)” value in series [1] was 0%.

(Values after patent US11872236B2, “Pharmacological agents for treating ocular diseases” (CALASIA PHARMACEUTICALS, INC., priority 2018, dated 2024).)
